The target of assay [1] is FGFR3-BAIAP2L1 Ba/F3 cells (Homo sapiens, UniProt P22607). Nature of the assay: Ba/F3 cell viability assay (CellTiter-Glo 2.0), FGFR3-BAIAP2L1 Ba/F3. The format is cell-based. As to conditions: for Ba/F3 FGFR1/FGFR3 Selectivity: FGFR3 > FGFR1 selectivity ratio in Ba/F3 FGFR fusion cell based assays; for IC50: read-out: Ba/F3 Cells FGFR3 (IC50 nM), FGFR3-BAIAP2L1 Ba/F3 cells, 48 hours, Cell Titer Glo 2.0. Summed up: (§1)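 IL3-independent Ba/F3 lines driven by FGFR1-BCR or FGFR3-BAIAP2L1 fusions, in RPMI1640/10% FBS. 9-dose 10-fold series from 30 μM, triplicate, 48 h at 37 °C; viability by CellTiter-Glo 2.0 ATP luminescence relative to DMSO control, IC50 from 4-parameter sigmoidal fit.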
A general note: ATP-based viability assays read luminescence as a measure of living cells.

The next assay deals with FGFR1-BCR Ba/F3 cells (Homo sapiens, UniProt P11362). Nature of the assay: Ba/F3 cell viability assay (CellTiter-Glo 2.0), FGFR1-BCR Ba/F3. Type of assay: cell-based. The conditions noted are these: read-out: Ba/F3 Cells FGFR1 (IC50 nM), 48 hours, Cell Titer Glo 2.0. Summed up: as §1
Assay [2] concerns RT112/84 cells (FGFR3-fusion). The assay can be described thus: RT112/84 cancer cell line cell viability assay (CellTiter-Glo 2.0). The format is cell-based. The conditions noted are these: Homo sapiens, 72 hours, Cell Titer Glo 2.0. Put shortly: (§2)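 RT112/84, UM-UC-14 and KG-1 cells (10,000/well, RPMI1640 with 10% FBS) were treated with a 9-dose, 10-fold series starting at 30 μM, in triplicate, for 72 h at 37 °C. ATP was read by CellTiter-Glo 2.0 luminescence relative to DMSO controls, and IC50 was fitted with a 4-parameter sigmoidal model.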

In assay [3] the test system is UM-UC-14 cells (FGFR3(S249C)). Nature of the assay: UM-UC-14 cancer cell line cell viability assay (CellTiter-Glo 2.0). As to conditions: UMUC14, 72 hours, Cell Titer Glo 2.0. Type of assay: cell-based. From the text: Experimental Purpose: To detect the change of intracellular ATP by Cell Titer-Glo® and to evaluate the inhibitory effect of the compounds on cancer cell lines by determining the in vitro IC50 value of the compounds.
Cell Titer-Glo® 2.0 Luminescent cell viability assay reagent was purchased from Promega (Madison, WI). RT112/84 and KG-1 cell lines were purchased from American Type Culture Collection (Manassas, VA). UM-UC-14 cell line was purchased from Sigma (St. Louis, MO). RT112/84, UM-UC-14, and KG-1 cells were cultured in RPMI1640 media supplemented with 10% fetal bovine serum. Cultures were maintained at 37° C. in a humidified atmosphere of 5% C02 and 95% air.
Cell Viability Assay Procedure: Cells were plated in 96-well clear bottom/white plates (Corning #3903) at 10,000 cells/well in 100 μl of media, incubated overnight. The next day, test compound DMSO stock solutions were made at 10 mM and 2 μM final concentration. Compounds were then added to cells in a 9-dose, 10-fold dilution series starting at 30 μM with an HP 300e Digital Dispenser (each dose was applied in triplicate). DMSO was backfilled to each well up to 301 nL total volume of test compound+DMSO, and a total of 301 nL DMSO was added to a control/no test compound well in triplicate. The cells in cell culture plates were incubated with the compounds at 37° C. and 5% C02 for 72 hours. Then 50 μl of Cell Titer Glo 2.0 reagent was added to each well of the cell culture plates. The contents were covered from light and mixed on an orbital shaker at room temperature for 10 min. Luminescence was recorded by a Synergy H1 Microplate Reader (Biotek, Winooski, VT). Cells were assessed as a percentage of DMSO only treated control cells. Curves were plotted and IC50 values were calculated using the GraphPad Prism 8 program based on a sigmoidal dose-response equation (4 parameter).

Assay [4] concerns KG-1 cells (FGFR1-fusion). Nature of the assay: KG-1 cancer cell line cell viability assay (CellTiter-Glo 2.0). Type of assay: cell-based. The conditions noted are these: Homo sapiens, 72 hours, Cell Titer Glo 2.0. Summed up:
as §2

Another assay concerns the target FGFR1 (Homo sapiens (Human), UniProt P11362). The assay can be described thus: Kinase assay, binding constants (Kd), kinase-tagged T7 phage, qPCR. Put shortly: (§3)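 Competition binding: T7 phage-tagged kinase + biotin-ligand beads + compound (11 pts, 3-fold, 0.9% DMSO). Elution 30 min RT with free ligand; qPCR quantitation. Kd via Hill fit, slope −1.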
On the technique in general: In qPCR the cycle at which signal appears reflects the starting amount.

Another assay addresses FGFR2 (Homo sapiens (Human), UniProt P21802). The assay is described as above. Put shortly:
as §3

The next assay addresses FGFR3 (Homo sapiens (Human), UniProt P22607). The description is as above. Put shortly:
as §3

The target of another assay is FGFR3 (V555M) (Homo sapiens (Human), UniProt P22607, V555M). Described as above. As to conditions: V555M mutant. Put shortly:
as §3

A further assay has as its target FGFR4 (Homo sapiens (Human), UniProt P22455). Described as above. Put shortly: as §3

Structures can show the parent of a compound that is named as a salt.

Sequence of FGFR3 (V555M) (P22607 23-806 V555M): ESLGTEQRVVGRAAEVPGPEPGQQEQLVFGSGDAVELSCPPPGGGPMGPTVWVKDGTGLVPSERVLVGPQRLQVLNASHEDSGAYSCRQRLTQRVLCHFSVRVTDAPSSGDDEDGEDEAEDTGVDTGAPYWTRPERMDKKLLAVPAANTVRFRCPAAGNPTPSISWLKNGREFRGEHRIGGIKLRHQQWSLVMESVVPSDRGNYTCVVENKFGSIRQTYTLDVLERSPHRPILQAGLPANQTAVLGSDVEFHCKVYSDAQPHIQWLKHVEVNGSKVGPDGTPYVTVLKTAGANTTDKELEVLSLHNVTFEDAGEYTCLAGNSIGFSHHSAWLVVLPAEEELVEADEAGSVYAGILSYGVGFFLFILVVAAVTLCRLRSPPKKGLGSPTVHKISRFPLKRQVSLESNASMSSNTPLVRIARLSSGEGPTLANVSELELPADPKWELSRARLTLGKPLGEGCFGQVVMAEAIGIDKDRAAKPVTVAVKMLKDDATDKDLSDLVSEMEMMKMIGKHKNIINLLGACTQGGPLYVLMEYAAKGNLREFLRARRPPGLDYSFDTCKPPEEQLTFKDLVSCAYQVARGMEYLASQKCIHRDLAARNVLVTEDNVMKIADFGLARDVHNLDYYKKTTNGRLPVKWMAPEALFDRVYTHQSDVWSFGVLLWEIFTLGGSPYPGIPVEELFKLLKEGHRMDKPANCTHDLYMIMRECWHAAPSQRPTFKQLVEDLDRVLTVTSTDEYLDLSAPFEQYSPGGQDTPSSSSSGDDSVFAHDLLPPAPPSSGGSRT
Sequence of FGFR1-BCR Ba/F3 cells (P11362 22-822 limits assumed, stated change not applied): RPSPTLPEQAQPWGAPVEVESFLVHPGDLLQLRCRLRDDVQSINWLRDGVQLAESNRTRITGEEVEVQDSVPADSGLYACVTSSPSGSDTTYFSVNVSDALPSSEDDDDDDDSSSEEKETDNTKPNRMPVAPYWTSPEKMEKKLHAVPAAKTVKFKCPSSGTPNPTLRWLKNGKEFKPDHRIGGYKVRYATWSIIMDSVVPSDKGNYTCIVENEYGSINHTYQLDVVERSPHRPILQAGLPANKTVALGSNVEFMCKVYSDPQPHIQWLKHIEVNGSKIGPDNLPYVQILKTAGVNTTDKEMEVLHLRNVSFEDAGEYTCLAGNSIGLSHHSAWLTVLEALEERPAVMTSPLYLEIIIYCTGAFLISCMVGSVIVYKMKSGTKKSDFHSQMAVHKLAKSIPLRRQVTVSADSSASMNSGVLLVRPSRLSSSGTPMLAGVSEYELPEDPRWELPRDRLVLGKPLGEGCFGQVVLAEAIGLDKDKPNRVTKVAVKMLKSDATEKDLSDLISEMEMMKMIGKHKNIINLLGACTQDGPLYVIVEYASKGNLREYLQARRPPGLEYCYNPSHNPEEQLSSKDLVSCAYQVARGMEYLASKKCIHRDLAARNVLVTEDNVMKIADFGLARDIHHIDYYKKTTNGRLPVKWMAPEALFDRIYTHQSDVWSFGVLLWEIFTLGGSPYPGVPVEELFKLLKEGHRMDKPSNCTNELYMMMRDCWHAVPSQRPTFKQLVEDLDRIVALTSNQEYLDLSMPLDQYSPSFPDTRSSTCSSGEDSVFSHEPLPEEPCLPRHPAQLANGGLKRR
Sequence of FGFR1 (P11362 22-822): as the sequence (P11362 22-822 limits assumed, stated change not applied) above
Sequence of FGFR2 (P21802 22-821): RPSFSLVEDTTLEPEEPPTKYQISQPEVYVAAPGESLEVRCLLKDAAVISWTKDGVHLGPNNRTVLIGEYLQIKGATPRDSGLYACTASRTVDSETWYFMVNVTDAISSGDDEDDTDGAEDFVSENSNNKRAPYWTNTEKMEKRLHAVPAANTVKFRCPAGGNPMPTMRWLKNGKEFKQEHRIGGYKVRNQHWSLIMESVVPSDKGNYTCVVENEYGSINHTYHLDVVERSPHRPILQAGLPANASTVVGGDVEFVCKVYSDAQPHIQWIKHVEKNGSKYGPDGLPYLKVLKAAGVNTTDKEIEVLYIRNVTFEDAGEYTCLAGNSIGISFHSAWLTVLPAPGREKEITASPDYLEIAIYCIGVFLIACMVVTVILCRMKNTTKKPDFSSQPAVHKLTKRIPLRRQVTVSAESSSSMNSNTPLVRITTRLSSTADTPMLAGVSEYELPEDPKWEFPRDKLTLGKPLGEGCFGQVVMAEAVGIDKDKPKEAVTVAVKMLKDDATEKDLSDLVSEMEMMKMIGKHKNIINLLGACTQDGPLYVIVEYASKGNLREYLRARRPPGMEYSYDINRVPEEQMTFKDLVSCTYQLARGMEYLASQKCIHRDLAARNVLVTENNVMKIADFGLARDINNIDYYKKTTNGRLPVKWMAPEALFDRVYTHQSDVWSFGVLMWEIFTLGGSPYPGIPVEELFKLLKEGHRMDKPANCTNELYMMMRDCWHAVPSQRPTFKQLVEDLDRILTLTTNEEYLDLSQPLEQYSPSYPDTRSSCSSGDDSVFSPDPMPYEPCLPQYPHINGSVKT
Sequence of FGFR4 (P22455 22-802): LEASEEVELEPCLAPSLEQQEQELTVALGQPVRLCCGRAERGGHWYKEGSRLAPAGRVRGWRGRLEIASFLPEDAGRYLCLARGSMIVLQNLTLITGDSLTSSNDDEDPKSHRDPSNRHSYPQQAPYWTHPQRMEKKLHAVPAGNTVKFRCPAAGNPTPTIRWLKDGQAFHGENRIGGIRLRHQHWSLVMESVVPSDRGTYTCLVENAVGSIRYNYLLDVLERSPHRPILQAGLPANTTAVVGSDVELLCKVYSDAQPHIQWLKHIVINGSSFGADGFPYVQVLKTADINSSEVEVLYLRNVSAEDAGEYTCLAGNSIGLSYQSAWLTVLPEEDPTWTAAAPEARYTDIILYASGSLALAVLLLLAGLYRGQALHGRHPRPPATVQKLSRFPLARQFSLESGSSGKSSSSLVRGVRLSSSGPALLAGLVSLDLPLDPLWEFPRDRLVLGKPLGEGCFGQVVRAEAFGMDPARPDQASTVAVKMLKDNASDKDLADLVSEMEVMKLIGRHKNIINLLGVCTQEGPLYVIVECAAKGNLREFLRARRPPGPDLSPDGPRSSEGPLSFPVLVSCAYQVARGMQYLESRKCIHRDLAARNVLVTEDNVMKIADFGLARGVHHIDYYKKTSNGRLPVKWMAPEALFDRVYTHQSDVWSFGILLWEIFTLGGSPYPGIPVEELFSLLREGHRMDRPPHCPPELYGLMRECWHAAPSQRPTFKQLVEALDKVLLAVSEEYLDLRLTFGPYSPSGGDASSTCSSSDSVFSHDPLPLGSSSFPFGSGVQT
Sequence of FGFR3 (P22607 23-806): as the sequence (P22607 23-806 V555M) above, with M533V counted along it
Sequence of FGFR3-BAIAP2L1 Ba/F3 cells (P22607 23-806 limits assumed, change not shown): as the sequence (P22607 23-806 V555M) above, with M533V counted along it

In the case of `C[C@@H](Oc1ccc2[nH]nc(-c3ccc(N4CCS(=O)(=O)CC4)nc3)c2c1)c1c(Cl)cncc1Cl` [Example 1, 4-[5-[5-[(1R)-1-(3,5-dichloro-4-pyridyl)ethoxy]-1H-indazol-3-yl]-2-pyridyl]-1,4-thiazinane 1,1-dioxide], the “Ba/F3 FGFR1/FGFR3 Selectivity” value in assay [1] was 33. Also, the IC50 fell in the range of 1 to 20 nM in assay [1]; 100 to 300 nM on FGFR1-BCR Ba/F3 cells; 1 to 20 nM in [2]; 1 to 20 nM in assay [3]; 100 to 300 nM in [4]. Besides, the Kd on FGFR1, on FGFR2, at FGFR3, on FGFR3 (V555M) and at FGFR4 was 1 to 20 nM throughout.

For `C[C@@H](Oc1ccc2[nH]nc(-c3ccc(N4CCNCC4)nc3)c2c1)c1c(Cl)cncc1Cl` [Example 2, (R)-5-(1-(3,5-Dichloropyridin-4-yl)ethoxy)-3-(6-(piperazin-1-yl)pyridin-3-yl)-1H-indazole dihydrochloride], the “Ba/F3 FGFR1/FGFR3 Selectivity” value in [1] stood at 15. The results for the IC50 (in [1]; on FGFR1-BCR Ba/F3 cells; in [3]) were 1 to 20 nM, 100 to 300 nM and 1 to 20 nM, respectively. For the same compound, the Kd at FGFR1, on FGFR2, on FGFR3, at FGFR3 (V555M) and at FGFR4 was 1 to 20 nM in each case.

Consider `C[C@@H](Oc1ccc2[nH]nc(-c3ccc(N4CCN(C(=O)N5CCOCC5)CC4)nc3)c2c1)c1c(Cl)cncc1Cl` [Example 3, [4-[5-[5-[(1R)-1-(3,5-dichloro-4-pyridyl)ethoxy]-1H-indazol-3-yl]-2-pyridyl]piperazin-1-yl]-morpholino-methanone], for which the “Ba/F3 FGFR1/FGFR3 Selectivity” value in [1] worked out at 18. Moreover, the IC50 in assay [1] lay within 1 to 20 nM; on FGFR1-BCR Ba/F3 cells, 20 to 100 nM; in [2] it was 1 to 20 nM; in [3], 1 to 20 nM; in assay [4], 20 to 100 nM. For the same compound, the Kd on FGFR1, on FGFR2, at FGFR3, on FGFR3 (V555M) and at FGFR4 was 1 to 20 nM throughout.

Consider `C[C@@H](Oc1ccc2[nH]nc(-c3ccc(N4CCN(C(=O)N5CCN(C)CC5)CC4)nc3)c2c1)c1c(Cl)cncc1Cl` [Example 4, [4-[5-[5-[(1R)-1-(3,5-dichloro-4-pyridyl)ethoxy]-1H-indazol-3-yl]-2-pyridyl]piperazin-1-yl]-(4-methylpiperazin-1-yl)methanone], for which the “Ba/F3 FGFR1/FGFR3 Selectivity” value in assay [1] is 29. Moreover, the IC50 in [1] is 1 to 20 nM; on FGFR1-BCR Ba/F3 cells, 100 to 300 nM; in assay [2], 1 to 20 nM; in assay [3], 1 to 20 nM; in assay [4] it was 20 to 100 nM. For the same compound, the Kd at FGFR1, at FGFR2, on FGFR3, on FGFR3 (V555M) and at FGFR4 was 1 to 20 nM in each case.

For the compound `C[C@@H](Oc1ccc2[nH]nc(-c3ccc(N4CCN(C(=O)N(C)C)CC4)nc3)c2c1)c1c(Cl)cncc1Cl` [Example 5, 4-[5-[5-[(1R)-1-(3,5-dichloro-4-pyridyl)ethoxy]-1H-indazol-3-yl]-2-pyridyl]-N,N-dimethyl-piperazine-1-carboxamide], the “Ba/F3 FGFR1/FGFR3 Selectivity” value in [1] is on record as 22. Moreover, the IC50 in [1] fell in the range of 1 to 20 nM; at FGFR1-BCR Ba/F3 cells it was 100 to 300 nM; in assay [2] it was 1 to 20 nM; in assay [3], 1 to 20 nM; in [4], 20 to 100 nM. Besides, the Kd on FGFR1, at FGFR2, at FGFR3, at FGFR3 (V555M) and on FGFR4 was 1 to 20 nM each time.

On to `C[C@@H](Oc1ccc2[nH]nc(-c3ccc(N4CCN(S(C)(=O)=O)CC4)nc3)c2c1)c1c(Cl)cncc1Cl` [Example 6, 5-[(1R)-1-(3,5-dichloro-4-pyridyl)ethoxy]-3-[6-(4-methylsulfonyl-piperazin-1-yl)-3-pyridyl]-1H-indazole], for which the “Ba/F3 FGFR1/FGFR3 Selectivity” value in assay [1] was determined as 13. Also, the IC50 in assay [1] lay in the range of 1 to 20 nM; at FGFR1-BCR Ba/F3 cells, 20 to 100 nM; in [2], 1 to 20 nM; in [3] it was 1 to 20 nM; in assay [4], 20 to 100 nM. Besides, the Kd (commonly the concentration at which binding is half-saturated) at FGFR1 fell in the range of 1 to 20 nM; at FGFR2 it was 20 to 100 nM; on FGFR3 it was 1 to 20 nM; at FGFR3 (V555M), 1 to 20 nM; at FGFR4 it was 1 to 20 nM.

For the compound `C[C@@H](Oc1ccc2[nH]nc(-c3ccc(N4CCN(S(=O)(=O)N5CCN(C)CC5)CC4)nc3)c2c1)c1c(Cl)cncc1Cl` [Example 8, 5-[(1R)-1-(3,5-dichloro-4-pyridyl)ethoxy]-3-[6-[4-(4-methylpiperazin-1-yl)sulfonylpiperazin-1-yl]-3-pyridyl]-1H-indazole], in assay [1], the “Ba/F3 FGFR1/FGFR3 Selectivity” value is recorded as 16. In addition, the IC50 in assay [1] lay within 1 to 20 nM; on FGFR1-BCR Ba/F3 cells it was 100 to 300 nM; in assay [2], 1 to 20 nM; in assay [3], 1 to 20 nM; in assay [4], 100 to 300 nM. Further, the Kd on FGFR1 fell in the range of 20 to 100 nM; at FGFR2, 20 to 100 nM; on FGFR3, 1 to 20 nM; on FGFR3 (V555M), 1 to 20 nM; at FGFR4, 1 to 20 nM.

As to `COC(=O)N1CCC2(CC1)CN(c1ccc(-c3n[nH]c4ccc(O[C@H](C)c5c(Cl)cncc5Cl)cc34)cn1)C2` [Example 125, methyl 2-[5-[5-[(1R)-1-(3,5-dichloro-4-pyridyl)ethoxy]-1H-indazol-3-yl]-2-pyridyl]-2,7-diazaspiro[3.5]nonane-7-carboxylate], the “Ba/F3 FGFR1/FGFR3 Selectivity” value in assay [1] is on record as 16. In addition, the IC50 in assay [1] was in the range of 1 to 20 nM; on FGFR1-BCR Ba/F3 cells, 100 to 300 nM; in assay [2], 1 to 20 nM; in [4], 100 to 300 nM. Further, the Kd at FGFR1 is 20 to 100 nM; at FGFR2, 20 to 100 nM; on FGFR3, 1 to 20 nM; on FGFR3 (V555M) it was 1 to 20 nM; at FGFR4 it was 1 to 20 nM.

With `C[C@@H](Oc1ccc2[nH]nc(-c3cnc(N4CCC5(CCS(=O)(=O)C5)C4)nc3)c2c1)c1c(Cl)cncc1Cl` (stereo partly drawn) [Example 127, 7-[5-[5-[(1R)-1-(3,5-dichloro-4-pyridyl)ethoxy]-1H-indazol-3-yl]pyrimidin-2-yl]-2λ^6-thia-7-azaspiro[4.4]nonane 2,2-dioxide], in assay [1], the “Ba/F3 FGFR1/FGFR3 Selectivity” value worked out at 11. For the same compound, the IC50 in [1] fell in the range of 1 to 20 nM; on FGFR1-BCR Ba/F3 cells it was 100 to 300 nM; in assay [2], 20 to 100 nM; in [4], 100 to 300 nM. In addition, the Kd at FGFR1 lay within 20 to 100 nM; on FGFR2, 20 to 100 nM; on FGFR3, 1 to 20 nM; at FGFR3 (V555M), 1 to 20 nM; on FGFR4, 1 to 20 nM.

In the case of `C[C@@H](Oc1ccc2[nH]nc(-c3cnc(N4CC5(CCN(S(C)(=O)=O)C5)C4)nc3)c2c1)c1c(Cl)cncc1Cl` [Example 157, 5-[(1R)-1-(3,5-dichloro-4-pyridyl)ethoxy]-3-[2-(7-methylsulfonyl-2,7-diazaspiro[3.4]octan-2-yl)pyrimidin-5-yl]-1H-indazole], the “Ba/F3 FGFR1/FGFR3 Selectivity” value in [1] came to 7. The IC50 in assay [1] was 1 to 20 nM; at FGFR1-BCR Ba/F3 cells, 100 to 300 nM; in assay [2], 20 to 100 nM; in assay [3], 100 to 300 nM. For the same compound, the Kd was 20 to 100 nM at FGFR1; 20 to 100 nM at FGFR2; 1 to 20 nM on FGFR3; 1 to 20 nM at FGFR3 (V555M); 1 to 20 nM on FGFR4.

Values taken from US20240109865A1, “INDAZOLE COMPOUNDS AS KINASE INHIBITORS” (TYRA BIOSCIENCES, INC., priority 2020, published 2024).
